Experimental data from US12427146B2, “C-terminal SRC kinase inhibitors” (INVENTISBIO CO., LTD., priority 2018, dated 2025).

Assays:
CSK protein = CSK protein (Homo sapiens (Human), UniProt P41240); assay: CSK Inhibition Assay; assay type: biochemical
Method: Test compound was dissolved in DMSO at 10 mM. 45 uL of compound was transferred into a 384-well compound source plate (LABCYTE cat #P-05525) and serially diluted at 1:3 ratio to create a 11-point dilutions. The same volume of DMSO was adopted as high control. 20 nL of these compounds DMSO dilutes were dispensed into a new 384-well assay plate by Echo 550. […] 15 uL of kinase assay buffer containing CSK protein and substrate was transferred to assay plate and incubated at RT for 30 minutes. Kinase assay buffer supplemented with substrate peptides was employed as low control to monitor the background. 4 μM of ATP was prepared in kinase assay buffer and 5 μL of ATP solution was added to each well to start the reaction. The assay plate was incubated at 25° C. for 90 minutes and the reaction was stopped by adding 40 μL of 0.5 M EDTA.
(§1) Phosphorylated fluorescent-tagged peptides were differentiated from non-phosphorylated peptides by separating using Caliper EZ Reader II and the detection was directly converted to conversion ratio.
(§2) For estimation of IC50, the % substrate conversion values are transformed to % Inhibition Ratio by applying the following equation: […]

LCK protein = LCK protein (Homo sapiens (Human), UniProt P06239); assay: LCK Inhibition Assay; assay type: biochemical
Method: Test compound was dissolved in DMSO at 10 mM. 45 uL of compound was transfer into a 384-well compound source plate (LABCYTE cat #P-05525) and serially diluted at 1:3 ratio to create a 11-point dilutions. The same volume of DMSO was adopted as high control. 20 nL of these compounds DMSO dilutes were dispensed into a new 384-well assay plate by Echo 550. LCK protein (0.50 nM, Cama Biosciences, cat #08-170), florescent labeled substrate FLPeptide4 (2 μM, PerkinElmer, cat #760348) was prepared in kinase assay buffer (50 mM HEPES (pH 7.5), 10 mM MgCl2, 0.01% Brij-35, 2 mM DTT and 0.005 mg/ml BSA). 15 uL of kinase assay buffer containing LCK protein and substrate was transferred to assay plate and incubate at RT for 30 minutes. Kinase assay buffer supplemented with substrate peptides was employed as low control to monitor the background. 400 μM ATP was prepared in kinase assay buffer and 5 μL of ATP solution was added to each well to start the reaction. The assay plate was incubated at 25° C. for 90 minutes and the reaction was stopped by adding 40 μL of 0.5 M EDTA.
as §1, §2

Chain of LCK protein (P06239 whole entry): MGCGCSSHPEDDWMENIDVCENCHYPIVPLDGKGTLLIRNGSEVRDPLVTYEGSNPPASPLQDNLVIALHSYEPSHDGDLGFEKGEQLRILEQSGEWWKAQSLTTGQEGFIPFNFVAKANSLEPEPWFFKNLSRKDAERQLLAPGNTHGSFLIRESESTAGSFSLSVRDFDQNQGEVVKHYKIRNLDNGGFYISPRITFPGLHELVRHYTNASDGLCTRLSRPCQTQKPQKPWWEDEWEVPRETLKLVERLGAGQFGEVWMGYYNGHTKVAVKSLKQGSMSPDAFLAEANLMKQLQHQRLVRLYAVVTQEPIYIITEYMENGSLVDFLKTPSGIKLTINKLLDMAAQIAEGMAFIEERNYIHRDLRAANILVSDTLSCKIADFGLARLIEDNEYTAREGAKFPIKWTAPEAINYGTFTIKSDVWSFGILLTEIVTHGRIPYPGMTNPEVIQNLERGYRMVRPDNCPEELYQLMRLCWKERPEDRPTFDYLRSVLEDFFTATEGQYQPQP
Chain of CSK protein (P41240 whole entry): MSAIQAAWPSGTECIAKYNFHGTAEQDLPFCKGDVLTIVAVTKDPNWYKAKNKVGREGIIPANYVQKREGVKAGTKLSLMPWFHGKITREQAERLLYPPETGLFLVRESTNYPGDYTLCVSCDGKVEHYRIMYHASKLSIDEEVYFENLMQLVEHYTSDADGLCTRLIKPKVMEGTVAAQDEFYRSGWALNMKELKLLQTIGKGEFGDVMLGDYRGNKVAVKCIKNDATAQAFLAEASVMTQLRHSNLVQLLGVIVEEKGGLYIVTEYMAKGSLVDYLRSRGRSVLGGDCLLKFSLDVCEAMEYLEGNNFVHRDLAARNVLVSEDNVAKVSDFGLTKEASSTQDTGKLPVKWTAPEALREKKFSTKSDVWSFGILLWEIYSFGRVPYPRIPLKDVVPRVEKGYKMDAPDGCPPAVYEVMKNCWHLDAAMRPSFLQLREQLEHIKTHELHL

SMILES: Cc1ccc(Cl)c(S(=O)(=O)Nc2cccc(-c3nc(-c4ccc(F)cn4)sc3-c3ccnc(N)n3)c2F)c1Cl [Compound 125]
- IC50 (CSK protein): 15.3 nM
- IC50 (LCK protein): > 1000 nM

SMILES: Cc1ccc(Cl)c(S(=O)(=O)Nc2cccc(-c3nc(-c4ccc(F)cn4)sc3-c3ccnc(NC4CC4)n3)c2F)c1Cl [Compound 137]
- IC50 (CSK protein): 21.3 nM
- IC50 (LCK protein): > 1000 nM

SMILES: Nc1nccc(-c2sc(-c3ccc(F)cn3)nc2-c2cccc(NS(=O)(=O)c3c(Cl)cccc3Cl)c2F)n1 [Compound 132]
- IC50 (CSK protein): 62 nM
- IC50 (LCK protein): 100 to 1000 nM

SMILES: Cc1ccc(F)c(S(=O)(=O)Nc2cccc(-c3nc(-c4ccc(F)cn4)sc3-c3ccnc(N)n3)c2F)c1F [Compound 54]
- IC50 (CSK protein): 92.8 nM
- IC50 (LCK protein): > 1000 nM

SMILES: CNC(=O)N[C@@H](C)CNc1nccc(-c2sc(-c3ccccc3)nc2-c2cccc(NS(=O)(=O)c3c(F)cccc3F)c2F)n1 [compound 45]
- IC50 (CSK protein): 41.3 nM
- IC50 (LCK protein): > 1000 nM

SMILES: Nc1nccc(-c2sc(-c3ccc(C(F)(F)F)cc3)nc2-c2cccc(NS(=O)(=O)c3c(F)cccc3F)c2F)n1 [Compound 4]
- IC50 (CSK protein): 328 nM
- IC50 (LCK protein): > 1000 nM

SMILES: Nc1nccc(-c2c(-c3cccc(NS(=O)(=O)c4c(F)cccc4F)c3F)nc3cc(C(F)(F)F)ccn23)n1 [Compound 105]
- IC50 (CSK protein): 400 nM
- IC50 (LCK protein): > 1000 nM

SMILES: Nc1nccc(-c2sc(-c3cncnc3)nc2-c2cccc(NS(=O)(=O)c3c(F)cccc3F)c2F)n1 [Compound 29]
- IC50 (CSK protein): 20.5 nM
- IC50 (LCK protein): > 1000 nM

SMILES: CNc1nccc(-c2sc(-c3ccc(C)nn3)nc2-c2cccc(NS(=O)(=O)c3c(F)ccc(C)c3F)c2F)n1 [Compound 65]
- IC50 (CSK protein): 14.9 nM
- IC50 (LCK protein): > 1000 nM

SMILES: Cc1ncc(-c2nc(-c3cccc(NS(=O)(=O)c4c(Cl)cccc4Cl)c3F)c(-c3ccnc(N)n3)s2)cn1 [Compound 141]
- IC50 (CSK protein): 6.8 nM
- IC50 (LCK protein): 100 to 1000 nM

SMILES: Nc1nccc(-c2sc(-c3ccccc3)nc2-c2cccc(NS(=O)(=O)c3ccc4[nH]ncc4c3)c2F)n1 [Compound 83]
- IC50 (CSK protein): 842 nM
- IC50 (LCK protein): > 1000 nM

SMILES: CNc1nccc(-c2sc(-c3ccc(F)cc3)nc2-c2cccc(NS(=O)(=O)c3c(F)ccc(C)c3F)c2F)n1 [Compound 70]
- IC50 (CSK protein): 92.3 nM
- IC50 (LCK protein): > 1000 nM

SMILES: Nc1nccc(-c2sc(-c3ccc(F)cc3)nc2-c2cccc(NS(=O)(=O)c3c(F)cccc3F)c2F)n1 [Compound 14]
- IC50 (CSK protein): 55.3 nM
- IC50 (LCK protein): > 1000 nM

SMILES: CNc1nccc(-c2sc(N(C)C)nc2-c2cccc(NS(=O)(=O)c3c(F)cccc3F)c2F)n1 [Compound 157]
- IC50 (CSK protein): 25.8 nM
- IC50 (LCK protein): > 1000 nM

SMILES: Cc1cc(F)c(S(=O)(=O)Nc2cccc(-c3nc(-c4ccccc4)sc3-c3ccnc(N)n3)c2F)c(F)c1 [Compound 35]
- IC50 (CSK protein): 81.2 nM
- IC50 (LCK protein): > 1000 nM

SMILES: CNc1nccc(-c2c(-c3cccc(NS(=O)(=O)c4c(F)ccc(C)c4F)c3F)nc3ccc(F)cn23)n1 [Compound 106]
- IC50 (CSK protein): 91.7 nM
- IC50 (LCK protein): > 1000 nM

SMILES: CCc1ccn2c(-c3ccnc(N)n3)c(-c3cccc(NS(=O)(=O)c4c(F)cccc4F)c3F)nc2c1 [Compound 92]
- IC50 (CSK protein): 89.2 nM
- IC50 (LCK protein): > 1000 nM

SMILES: CN(C)c1nc(-c2cccc(NS(=O)(=O)c3c(F)ccc(Cl)c3F)c2F)c(-c2ccnc(NC3CC3)n2)s1 [Compound 187]
- IC50 (CSK protein): 7.3 nM
- IC50 (LCK protein): > 1000 nM

SMILES: Nc1nccc(-c2sc(N3CCCCC3)nc2-c2cccc(NS(=O)(=O)c3c(F)cccc3F)c2F)n1 [Compound 111]
- IC50 (CSK protein): 16.4 nM
- IC50 (LCK protein): 100 to 1000 nM

SMILES: CNc1nccc(-c2sc(-c3ccc(F)cn3)nc2-c2cccc(NS(=O)(=O)c3c(F)cc(F)cc3F)c2F)n1 [Compound 77]
- IC50 (CSK protein): 85.5 nM
- IC50 (LCK protein): > 1000 nM

SMILES: CC(C)(C)c1nc(-c2cccc(NS(=O)(=O)c3c(F)cccc3F)c2F)c(-c2ccnc(Nc3ccc(N4CCOCC4)nc3)n2)s1 [compound 118]
- IC50 (CSK protein): 2.8 nM
- IC50 (LCK protein): < 100 nM

SMILES: C[C@H](Nc1nccc(-c2sc(-c3ccccc3)nc2-c2cccc(NS(=O)(=O)c3c(F)cccc3F)c2F)n1)C(N)=O [Compound 44]
- IC50 (CSK protein): 43.9 nM
- IC50 (LCK protein): > 1000 nM

SMILES: CNc1nccc(-c2sc(-c3cnc(C)nc3)nc2-c2cccc(NS(=O)(=O)c3c(Cl)ccc(C)c3Cl)c2F)n1 [Compound 143]
- IC50 (CSK protein): 3.6 nM
- IC50 (LCK protein): > 1000 nM

SMILES: CNc1nccc(-c2sc(N3CCC(F)(F)CC3)nc2-c2cccc(NS(=O)(=O)c3c(F)cccc3F)c2F)n1 [Compound 164]
- IC50 (CSK protein): 25.4 nM
- IC50 (LCK protein): 100 to 1000 nM

SMILES: N#Cc1ccn2c(-c3ccnc(N)n3)c(-c3cccc(NS(=O)(=O)c4c(F)cccc4F)c3F)nc2c1 [Compound 101]
- IC50 (CSK protein): 436 nM
- IC50 (LCK protein): > 1000 nM

SMILES: CNc1nccc(-c2sc(-c3cnc(C)nc3)nc2-c2cccc(NS(=O)(=O)c3c(F)ccc(C)c3F)c2F)n1 [Compound 69]
- IC50 (CSK protein): 13.4 nM
- IC50 (LCK protein): > 1000 nM

SMILES: CCn1cc(-c2nc(-c3cccc(NS(=O)(=O)c4c(F)cccc4F)c3F)c(-c3ccnc(N)n3)s2)cn1 [Compound 10]
- IC50 (CSK protein): 30.1 nM
- IC50 (LCK protein): 100 to 1000 nM

SMILES: NCCNc1nccc(-c2sc(-c3cncc(F)c3)nc2-c2cccc(NS(=O)(=O)c3c(F)cccc3F)c2F)n1 [Compound 67]
- IC50 (CSK protein): 617 nM
- IC50 (LCK protein): > 1000 nM

SMILES: CNc1nccc(-c2sc(N3CCC(F)(F)CC3)nc2-c2cccc(NS(=O)(=O)c3c(F)ccc(C)c3F)c2F)n1 [Compound 189]
- IC50 (CSK protein): 18.5 nM
- IC50 (LCK protein): > 1000 nM

SMILES: Cc1ccc(Cl)c(S(=O)(=O)Nc2cccc(-c3nc(-c4cncc(F)c4)sc3-c3ccnc(NCCO)n3)c2F)c1Cl [Compound 138]
- IC50 (CSK protein): 8.5 nM
- IC50 (LCK protein): > 1000 nM

SMILES: Nc1nccc(-c2sc(-c3cncc(C4CC4)c3)nc2-c2cccc(NS(=O)(=O)c3c(F)cccc3F)c2F)n1 [compound 48]
- IC50 (CSK protein): 75.8 nM
- IC50 (LCK protein): > 1000 nM

SMILES: O=S(=O)(Nc1cccc(-c2nc(N3CCCCC3)sc2-c2ccnc(NC3CC3)n2)c1F)c1c(F)ccc(Cl)c1F [Compound 185]
- IC50 (CSK protein): 4.9 nM
- IC50 (LCK protein): > 1000 nM

SMILES: CC(C)(C)c1nc(-c2cccc(NS(=O)(=O)c3c(F)ccc(Cl)c3F)c2F)c(-c2ccnc(NC3CC3)n2)s1 [Compound 188]
- IC50 (CSK protein): 11.4 nM
- IC50 (LCK protein): > 1000 nM

SMILES: Cc1cncc(-c2nc(-c3cccc(NS(=O)(=O)c4c(F)cccc4F)c3F)c(-c3ccnc(N)n3)s2)c1 [Compound 47]
- IC50 (CSK protein): 29.4 nM
- IC50 (LCK protein): 100 to 1000 nM

SMILES: CCOc1ccn2c(-c3ccnc(N)n3)c(-c3cccc(NS(=O)(=O)c4c(F)cccc4F)c3F)nc2c1 [Compound 97]
- IC50 (CSK protein): 98.2 nM
- IC50 (LCK protein): > 1000 nM

SMILES: COC(=O)N[C@H](C)CNc1nccc(-c2sc(-c3ccccc3)nc2-c2cccc(NS(=O)(=O)c3c(F)cccc3F)c2F)n1 [Compound 60]
- IC50 (CSK protein): 120 nM
- IC50 (LCK protein): > 1000 nM

SMILES: CNc1nccc(-c2sc(N3CC(F)(F)C3)nc2-c2cccc(NS(=O)(=O)c3c(F)cccc3F)c2F)n1 [Compound 168]
- IC50 (CSK protein): 12.7 nM
- IC50 (LCK protein): 100 to 1000 nM

SMILES: COc1ccc(F)c(S(=O)(=O)Nc2cccc(-c3nc(-c4cncc(F)c4)sc3-c3ccnc(N)n3)c2F)c1F [compound 50]
- IC50 (CSK protein): 76.3 nM
- IC50 (LCK protein): > 1000 nM

SMILES: CNc1nccc(-c2sc(N3CCCCC3)nc2-c2cccc(NS(=O)(=O)c3c(Cl)cccc3Cl)c2F)n1 [Compound 166]
- IC50 (CSK protein): 13.5 nM
- IC50 (LCK protein): 100 to 1000 nM

SMILES: Cc1ncc(-c2nc(-c3cccc(NS(=O)(=O)c4c(Cl)ccc(C)c4Cl)c3F)c(-c3ccnc(NCCO)n3)s2)cn1 [Compound 152]
- IC50 (CSK protein): 6 nM
- IC50 (LCK protein): > 1000 nM

SMILES: O=S(=O)(Nc1cccc(-c2nc(-c3ccccc3)sc2-c2ccnc(Nc3cncnc3)n2)c1F)c1c(F)cccc1F [compound 38]
- IC50 (CSK protein): 14.9 nM
- IC50 (LCK protein): 100 to 1000 nM
